# In US9790537B2, “Quinone-masked probes as labeling reagents for cell uptake measurements” (PROMEGA CORPORATION, priority 2014, dated 2017):
# Columns and labels:
# OATP1B1*1a = OATP1B1*1a (Homo sapiens, UniProt Q9Y6L6); experiment: Cell-based uptake transporter assay, TransportoCells OATP1B1*1a, luminescence; conditions: various concentrations, 30 min 37° C.; FIG. 13
# Method: (§1) Stock solutions of each compound were prepared as 10 mM in methanol. Corning TransportoCells OATP1B1*1a, OATP1B3, and Control Cells were used as cell model for cell-based uptake transporter assay. Cells were cultured according to manufacturer's recommendations. Briefly, cells were thawed from liquid nitrogen storage and cultured in Dulbecco's Modified Eagle's medium supplemented with fetal bovine serum (FBS), MEM non-essential amino acid, and sodium butyrate. Cells were then plated in Corning 96-well, poly-D-Lysine white/clear plate at 100,000 cells/well in 100 μl medium and incubated for 24 hours at 37° C. with 5% CO2.
# (§2) The uptake transporter assay was carried out by adding 100 μl of Hank's balanced salt solution containing 10 μM of one of the compounds to all the cells and incubated at 37° C. for 30 minutes. […] After a 20 minute incubation at room temperature (20°-25° C.), luminescence was detected on a GloMax® luminometer. […]
# (§3) The uptake transporter assay was carried out by adding 100 μl of Hank's balanced salt solution containing various concentrations (See FIG. 13) of PBI-5651 to all the cells and incubated at 37° C. for 30 minutes. […] After a 20 minute incubation at room temperature (20°-25° C.), luminescence was detected on a GloMax® luminometer.
# OATP1B3 = OATP1B3 (Homo sapiens, UniProt Q9NPD5); experiment: Cell-based uptake transporter assay, TransportoCells OATP1B3, luminescence; conditions: various concentrations, 30 min 37° C.; FIG. 13
# Method: as §1, §2, §3
# Sequence of OATP1B3 (Q9NPD5 whole entry): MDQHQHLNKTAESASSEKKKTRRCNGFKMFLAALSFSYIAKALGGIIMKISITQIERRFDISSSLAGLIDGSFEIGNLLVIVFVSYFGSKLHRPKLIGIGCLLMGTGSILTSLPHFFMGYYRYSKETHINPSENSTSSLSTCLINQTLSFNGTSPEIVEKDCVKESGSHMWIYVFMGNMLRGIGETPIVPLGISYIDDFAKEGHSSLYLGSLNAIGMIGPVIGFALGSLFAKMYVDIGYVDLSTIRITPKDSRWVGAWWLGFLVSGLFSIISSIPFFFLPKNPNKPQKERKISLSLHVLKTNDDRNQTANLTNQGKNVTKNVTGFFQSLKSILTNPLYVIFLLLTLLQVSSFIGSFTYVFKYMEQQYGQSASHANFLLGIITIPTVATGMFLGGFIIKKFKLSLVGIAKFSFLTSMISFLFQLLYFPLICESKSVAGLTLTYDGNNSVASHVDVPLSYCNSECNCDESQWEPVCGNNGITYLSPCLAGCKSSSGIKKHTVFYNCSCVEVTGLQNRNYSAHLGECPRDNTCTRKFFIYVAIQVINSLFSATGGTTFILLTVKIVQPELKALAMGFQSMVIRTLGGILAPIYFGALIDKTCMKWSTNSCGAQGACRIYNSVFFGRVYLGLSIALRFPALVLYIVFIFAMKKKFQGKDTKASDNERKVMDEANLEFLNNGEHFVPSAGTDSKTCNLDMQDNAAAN
structure (smiles),measurement,setting,value
"CC1=C(C)C(=O)C(C(C)(C)CC(=O)N(C)CCN(CCOCCOCCC(=O)NCCCCC(NC(=O)CC[C@@H](C)[C@H]2CC[C@H]3[C@@H]4[C@@H](O)C[C@@H]5C[C@H](O)CC[C@]5(C)[C@H]4CC[C@]23C)C(=O)O)C(=O)Oc2ccc3nc(C4=NC(C(=O)O)CS4)sc3c2)=C(C)C1=O (stereo partly drawn) [PBI-5651, 2-(6-((((20R)-15-carboxy-20-((3R,5S,7S,8R,9S,10S,13R,14S,17R)-3,7-dihydroxy-10,13-dimethylhexadecahydro-1H-cyclopenta[a]phenanthren-17-yl)-9,17-dioxo-3,6-dioxa-10,16-diazahenicosyl)(2-(N,3-dimethyl-3-(2,4,5-trimethyl-3,6-dioxocyclohexa-1,4-dien-1-yl)butanamido)ethyl)carbamoyl)oxy)benzo[d]thiazol-2-yl)-4,5-dihydrothiazole-4-carboxylic acid]",response of luminescence (RLU) to compound concentration,OATP1B1*1a,dynamic response of luminescence
same,response of luminescence (RLU) to compound concentration,OATP1B3,dynamic response of luminescence
